Reference: US7994172B2, “[1H-pyrazolo[3, 4-D]pyrimidin-4-yl]-piperidine or -piperazine compounds as serine-theoronine kinase modulators (P70s6k, Atk1 and Atk2) for the treatment of immunological, inflammatory and proliferative diseases” (Exelixis, Inc., priority 2004, dated 2011)

Tests used:
[1] = molecular target: T1, human p70S6 kinase (p70S6K, kinase domain residues 1-421, T412E mutation) (Homo sapiens, UniProt P23443, T412E); experiment: p70S6 kinase assay, Luciferase-Coupled Chemiluminescent Kinase assay (LCCA); assay type: biochemical; details: 5 μM ATP, 12 nM p70S6K; read-out: p70S6K inhibition IC50
T1 construct: human p70S6 kinase domainresidues 1-421, containing a T412E mutation; made in house
T1 sequence (P23443 1-421 T412E): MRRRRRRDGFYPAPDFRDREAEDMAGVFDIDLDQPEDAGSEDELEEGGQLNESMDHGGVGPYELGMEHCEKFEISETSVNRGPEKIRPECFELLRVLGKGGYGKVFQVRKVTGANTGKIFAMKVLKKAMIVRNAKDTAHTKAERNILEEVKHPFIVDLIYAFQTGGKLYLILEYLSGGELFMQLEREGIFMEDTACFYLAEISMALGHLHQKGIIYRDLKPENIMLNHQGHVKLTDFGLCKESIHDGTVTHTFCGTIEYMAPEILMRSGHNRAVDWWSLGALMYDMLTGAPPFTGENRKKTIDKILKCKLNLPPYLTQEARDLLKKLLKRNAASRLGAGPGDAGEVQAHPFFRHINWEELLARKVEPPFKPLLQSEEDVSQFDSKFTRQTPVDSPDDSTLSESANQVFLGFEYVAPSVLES
Protocol: (§1) Kinase activity and compound inhibition are investigated using one or more of the three assay formats described below. The ATP concentrations for each assay are selected to be close to the Michaelis-Menten constant (KM) for each individual kinase. Dose-response experiments are performed at 10 different inhibitor concentrations in a 384-well plate format. The data are fitted to four-parameter equation (2) below; where Y is the observed signal, X is the inhibitor concentration, Min is the background signal in the absence of enzyme (0% enzyme activity), Max is the signal in the absence of inhibitor (100% enzyme activity), IC50 is the inhibitor concentration at 50% enzyme inhibition and H represents the empirical Hill's slope to measure the cooperativity. Typically H is close to unity. Y=Min+(Max−Min)/(1+(X/IC50)^H) Equation (2) p70S6 Kinase Assay
Biochemical activity of p70S6 kinase was assessed using a Luciferase-Coupled Chemiluminescent Kinase assay (LCCA) format. Kinase activity was measured as the percent ATP remaining following the kinase reaction. Remaining ATP was detected by luciferase-luciferin-coupled chemiluminescence. Specifically, the reaction was initiated by mixing test compounds, 5 μM ATP, 5 μM RRRLSSLRA peptide and 12 nM p70S6K (baculovirus expressed human p70S6 kinase domainresidues 1-421, containing a T412E mutation) in a 20 uL assay buffer (20 mM Tris-HCL pH 7.5, 10 mM MgCl2, 0.02% Triton X-100, 100 mM DTT, 2 mM MnCl2). The mixture is incubated at ambient temperature for 2 hours after which 20 μL luciferase-luciferin mix is added and the chemiluminescent signal read using a Wallac Victor^2 reader. The luciferase-luciferin mix consists of 50 mM HEPES, pH 7.8, 8.5 μg/mL oxalic acid (pH 7.8), 5 (or 50) mM DTT, 0.4% Triton X-100, 0.25 mg/mL coenzyme A, 63 uM AMP, 28 μg/mL luciferin and 40,000 units/mL luciferase.

[2] = molecular target: T2, human Akt1 kinase (kinase domain residues R144-A480, activated with PDK1) (Homo sapiens, UniProt P31749); experiment: Akt1 kinase assay, Luciferase-Coupled Chemiluminescent Kinase assay (LCCA); assay type: biochemical; details: 1 μM ATP, 1.3 nM Akt1; read-out: Akt-1 inhibition IC50
T2 construct: made in house
T2 sequence (P31749 144-480): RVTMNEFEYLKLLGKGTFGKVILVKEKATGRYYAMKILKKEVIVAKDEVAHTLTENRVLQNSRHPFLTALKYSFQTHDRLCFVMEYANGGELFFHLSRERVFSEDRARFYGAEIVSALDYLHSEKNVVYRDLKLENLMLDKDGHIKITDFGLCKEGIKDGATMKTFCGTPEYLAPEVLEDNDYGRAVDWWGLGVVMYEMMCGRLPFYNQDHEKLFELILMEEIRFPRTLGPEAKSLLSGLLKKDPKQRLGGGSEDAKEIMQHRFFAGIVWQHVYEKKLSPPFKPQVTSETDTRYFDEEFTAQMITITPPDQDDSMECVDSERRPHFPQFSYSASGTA
Protocol: as §1
Biochemical activity of Akt1 kinase was assessed using a Luciferase-Coupled Chemiluminescent Kinase assay (LCCA) format. Kinase activity was measured as the percent ATP remaining following the kinase reaction. Remaining ATP was detected by luciferase-luciferin-coupled chemiluminescence. Specifically, the reaction was initiated by mixing test compounds, 1 μM ATP, 5 μM crosstide peptide and 1.3 nM Akt1 (baculovirus expressed human Akt1 kinase domain residues R144-A480, activated with PDK1) in a 20 uL assay buffer (20 mM Tris-HCL pH 7.5, 10 mM MgCl2, 0.01% Triton X-100, 1 mM DTT, 3 mM MnCl2). The mixture is incubated at ambient temperature for 3 hours after which 20 μL luciferase-luciferin mix is added and the chemiluminescent signal read using a Wallac Victor2 reader. The luciferase-luciferin mix consists of 50 mM HEPES, pH 7.8, 8.5 μg/mL oxalic acid (pH 7.8), 5 (or 50) mM DTT, 0.4% Triton X-100, 0.25 mg/mL coenzyme A, 63 uM AMP, 28 μg/mL luciferin and 40,000 units/mL luciferase.

SMILES	IC50 [1]	IC50 [2]
OC(c1ccc(Cl)cc1)C1CCN(c2ncnc3[nH]nc(Br)c23)CC1 (centres unmarked) [Entry 1, [1-(3-bromo-1H-pyrazolo[3,4-d]pyrimidin-4-yl)piperidin-4-yl](4-chlorophenyl)methanol]	< 50 nM	< 50 nM
CN(C)CCCOC(c1ccc(Cl)cc1)C1CCN(c2ncnc3[nH]nc(Br)c23)CC1 (centres unmarked) [Entry 3, 3-{[[1-(3-bromo-1H-pyrazolo[3,4-d]pyrimidin-4-yl)piperidin-4-yl](4-chlorophenyl)methyl]oxy}-N,N-dimethylpropan-1-amine]	< 50 nM	< 50 nM
Brc1ccc(CN2CCN(c3ncnc4[nH]nc(Br)c34)CC2)cc1 [Entry 4, 3-bromo-4-{4-[(4-bromophenyl)methyl]piperazin-1-yl}-1H-pyrazolo[3,4-d]pyrimidine]	< 50 nM	50 to 500 nM
OCC1CN(c2ncnc3[nH]nc(Br)c23)CCN1Cc1ccc(Cl)cc1 (centres unmarked) [Entry 5, {4-(3-bromo-1H-pyrazolo[3,4-d]pyrimidin-4-yl)-1-[(4-chlorophenyl)methyl]piperazin-2-yl}methanol]	< 50 nM	50 to 500 nM
CCN(CC)CCNC(c1ccc(Cl)cc1)C1CCN(c2ncnc3[nH]nc(Br)c23)CC1 (centres unmarked) [Entry 6, N′-[[1-(3-bromo-1H-pyrazolo[3,4-d]pyrimidin-4-yl)piperidin-4-yl](4-chlorophenyl)methyl]-N,N-diethylethane-1,2-diamine]	< 50 nM	< 50 nM
O=C1CN(c2ncnc3[nH]nc(Br)c23)CCN1Cc1ccc(Cl)cc1 [Entry 8, 4-(3-bromo-1H-pyrazolo[3,4-d]pyrimidin-4-yl)-1-[(4-chlorophenyl)methyl]piperazin-2-one]	< 50 nM	50 to 500 nM
CN(C)CCNC(=O)C(c1ccc(Cl)cc1)N1CCN(c2ncnc3[nH]nc(Br)c23)CC1 (centres unmarked) [Entry 9, 2-[4-(3-bromo-1H-pyrazolo[3,4-d]pyrimidin-4-yl)piperazin-1-yl]-2-(4-chlorophenyl)-N-[2-(dimethylamino)ethyl]acetamide]	< 50 nM	< 50 nM
CCN(CC)CCCN(c1ccc(Cl)cc1)C1CCN(c2ncnc3[nH]nc(Br)c23)CC1 [Entry 10, N-[1-(3-bromo-1H-pyrazolo[3,4-d]pyrimidin-4-yl)piperidin-4-yl]-N-(4-chlorophenyl)-N′,N′-diethylpropane-1,3-diamine]	< 50 nM	< 50 nM
CN(C)CCNC(=O)N(c1ccc(Cl)cc1)C1CCN(c2ncnc3[nH]nc(Br)c23)CC1 [Entry 12, N-[1-(3-bromo-1H-pyrazolo[3,4-d]pyrimidin-4-yl)piperidin-4-yl]-N-(4-chlorophenyl)-N′-[2-(dimethylamino)ethyl]urea]	< 50 nM	< 50 nM
CN(C)CCNC(=O)NC(c1ccc(Cl)cc1)C1CCN(c2ncnc3[nH]nc(Br)c23)CC1 (centres unmarked) [Entry 13, N-[[1-(3-bromo-1H-pyrazolo[3,4-d]pyrimidin-4-yl)piperidin-4-yl](4-chlorophenyl)methyl]-N′-[2-(dimethylamino)ethyl]urea]	< 50 nM	< 50 nM
CN(C)CCNC(=O)C(c1ccc(Cl)cc1)N1CCN(c2ncnc3[nH]nc(Br)c23)CC1=O (centres unmarked) [Entry 14, 2-[4-(3-bromo-1H-pyrazolo[3,4-d]pyrimidin-4-yl)-2-oxopiperazin-1-yl]-2-(4-chlorophenyl)-N-[2-(dimethylamino)ethyl]acetamide]	< 50 nM	< 50 nM
CN(C)CCOC(=O)N(c1ccc(Cl)cc1)C1CCN(c2ncnc3[nH]nc(Br)c23)CC1 [Entry 15, 2-(dimethylamino)ethyl [1-(3-bromo-1H-pyrazolo[3,4-d]pyrimidin-4-yl)piperidin-4-yl](4-chlorophenyl)carbamate]	< 50 nM	< 50 nM
Fc1cc(CN2CCN(c3ncnc4[nH]nc(Br)c34)CC2)ccc1Cl [Entry 16, 3-bromo-4-{4-[(4-chloro-3-fluorophenyl)methyl]piperazin-1-yl}-1H-pyrazolo[3,4-d]pyrimidine]	< 50 nM	50 to 500 nM
Fc1cc(Cl)ccc1CN1CCN(c2ncnc3[nH]nc(Br)c23)CC1 [Entry 17, 3-bromo-4-{4-[(4-chloro-2-fluorophenyl)methyl]piperazin-1-yl}-1H-pyrazolo[3,4-d]pyrimidine]	< 50 nM	50 to 500 nM
CCN(CC)CCN(c1ccc(Cl)cc1)C1CCN(c2ncnc3[nH]nc(Br)c23)CC1 [Entry 18, N-[1-(3-bromo-1H-pyrazolo[3,4-d]pyrimidin-4-yl)piperidin-4-yl]-N-(4-chlorophenyl)-N′,N′-diethylethane-1,2-diamine]	< 50 nM	< 50 nM
O=C(c1ccc(F)cc1)C1CCN(c2ncnc3[nH]nc(Br)c23)CC1 [Entry 20, [1-(3-bromo-1H-pyrazolo[3,4-d]pyrimidin-4-yl)piperidin-4-yl](4-fluorophenyl)methanone]	< 50 nM	< 50 nM
CCN(CC)CCN(C)C(c1ccc(Cl)cc1)C1CCN(c2ncnc3[nH]nc(Br)c23)CC1 (centres unmarked) [Entry 21, N-[[1-(3-bromo-1H-pyrazolo[3,4-d]pyrimidin-4-yl)piperidin-4-yl](4-chlorophenyl)methyl]-N′,N′-diethyl-N-methylethane-1,2-diamine]	< 50 nM	< 50 nM
OC(c1ccc(F)cc1)C1CCN(c2ncnc3[nH]nc(Br)c23)CC1 (centres unmarked) [Entry 22, [1-(3-bromo-1H-pyrazolo[3,4-d]pyrimidin-4-yl)piperidin-4-yl](4-fluorophenyl)methanol]	< 50 nM	50 to 500 nM
Fc1cc(C(F)(F)F)ccc1CN1CCN(c2ncnc3[nH]nc(Br)c23)CC1 [Entry 23, 3-bromo-4-(4-{[2-fluoro-4-(trifluoromethyl)phenyl]methyl}piperazin-1-yl)-1H-pyrazolo[3,4-d]pyrimidine]	< 50 nM	50 to 500 nM
CCN(CC)CCC(=O)N(c1ccc(Cl)cc1)C1CCN(c2ncnc3[nH]nc(Br)c23)CC1 [Entry 24, N-[1-(3-bromo-1H-pyrazolo[3,4-d]pyrimidin-4-yl)piperidin-4-yl]-N-(4-chlorophenyl)-N~3~,N~3~-diethyl-beta-alaninamide]	< 50 nM	< 50 nM
CN(C)CCOC(c1ccc(F)cc1)C1CCN(c2ncnc3[nH]nc(Br)c23)CC1 (centres unmarked) [Entry 25, 2-{[[1-(3-bromo-1H-pyrazolo[3,4-d]pyrimidin-4-yl)piperidin-4-yl](4-fluorophenyl)methyl]oxy}-N,N-dimethylethanamine]	< 50 nM	< 50 nM
CCN(CC)CCC(=O)NC(c1ccc(Cl)cc1)C1CCN(c2ncnc3[nH]nc(Br)c23)CC1 (stereo not drawn) [Entry 26, N-[[1-(3-bromo-1H-pyrazolo[3,4-d]pyrimidin-4-yl)piperidin-4-yl](4-chlorophenyl)methyl]-N~3~,N~3~-diethyl-beta-alaninamide]	< 50 nM	< 50 nM
CN(C)CCNC(=O)C(=O)N(c1ccc(Cl)cc1)C1CCN(c2ncnc3[nH]nc(Br)c23)CC1 [Entry 28, N-[1-(3-bromo-1H-pyrazolo[3,4-d]pyrimidin-4-yl)piperidin-4-yl]-N-(4-chlorophenyl)-N′-[2-(dimethylamino)ethyl]ethanediamide]	< 50 nM	< 50 nM
CCN(CC)CCS(=O)(=O)N(c1ccc(Cl)cc1)C1CCN(c2ncnc3[nH]nc(Br)c23)CC1 [Entry 29, N-[1-(3-bromo-1H-pyrazolo[3,4-d]pyrimidin-4-yl)piperidin-4-yl]-N-(4-chlorophenyl)-2-(diethylamino)ethanesulfonamide]	< 50 nM	< 50 nM
C=CCCC(=O)N(c1ccc(Cl)cc1)C1CCN(c2ncnc3[nH]nc(Br)c23)CC1 [Entry 35, N-[1-(3-bromo-1H-pyrazolo[3,4-d]pyrimidin-4-yl)piperidin-4-yl]-N-(4-chlorophenyl)pent-4-enamide]	< 50 nM	50 to 500 nM
